Laboratory results: article PMC11997989, “Design of Novel Mercapto-3-phenylpropanoyl Dipeptides as Dual Angiotensin-Converting Enzyme C–Domain-Selective/Neprilysin Inhibitors” (Journal of Medicinal Chemistry, 2025)

Legend:
human NEP ectodomain [1] = molecular target: T1, human NEP ectodomain (Homo sapiens, UniProt P08473); assay: NEP inhibition assay (continuous fluorogenic activity assay); type: biochemical; conditions: for IC50: 0.4 nM NEP, mean ± standard error, n ≥ 2
T1 construct: A purified human NEP ectodomain was used in continuous activity assays; made in house
Source text: Furthermore, while comparing Ki values (assuming they can be accurately determined in vitro using available kinetic models) provides information on the relative binding affinities in the absence of substrate, in vivo the extent of enzyme inhibition will be affected by the relative concentrations and affinities of the physiological substrates competing for the binding sites.

nACE [2] = molecular target: T2, nACE (Homo sapiens, UniProt P12821); assay: ACE inhibition assay, nACE (fluorogenic end point, Z-FHL); type: biochemical; conditions: for reduction in affinity for nACE compared to omapatrilat: factor, from IC50 values; for IC50: ~1 nM nACE, 0.5 mM Z-FHL, mean ± standard error, n ≥ 2
T2 construct: using purified recombinant single domain human ACE proteins and the human NEP ectodomain as previously described; made in house
Source text: (§1) For an accurate comparison of the inhibitor potencies across different enzymes and substrates, it is preferable to determine inhibition constants (Ki values). […] In the case of these new analogues, it was more challenging to accurately determine Ki values that could reliably be used to determine selectivity. […] This highlights the challenges in extrapolating data from in vitro assays to predict in vivo selectivity between targets. Furthermore, while comparing Ki values (assuming they can be accurately determined in vitro using available kinetic models) provides information on the relative binding affinities in the absence of substrate, in vivo the extent of enzyme inhibition will be affected by the relative concentrations and affinities of the physiological substrates competing for the binding sites. Given that accurate Ki values could not be calculated in a consistent manner for all compound-enzyme combinations, IC50 values are reported (Table 1).
(§2) Purified fully glycosylated human cACE and nACE proteins[36],[37] were used in fluorogenic end point activity assays utilizing Cbz-Phe-His-Leu (Z-FHL, Bachem Ltd., nACE Km = 600 μM; cACE Km = 60 μM) as the substrate as previously described.[32] Final reactions contained ∼1 nM nACE/cACE and 0.5 mM Z-FHL.

cACE [3] = molecular target: T3, cACE (Homo sapiens, UniProt P12821); assay: ACE inhibition assay, cACE (fluorogenic end point, Z-FHL); type: biochemical; conditions: for C-selectivity factor: nACE IC50/cACE IC50; for IC50: ~1 nM cACE, 0.5 mM Z-FHL, mean ± standard error, n ≥ 2
T3 construct: using purified recombinant single domain human ACE proteins and the human NEP ectodomain as previously described; made in house
Source text: as §1, §2

NEP = molecular target: T4, NEP (Homo sapiens, UniProt P08473); assay: Michaelis-Menten inhibition kinetics (mode of inhibition), NEP; type: biochemical; conditions: enzyme and inhibitor pre-incubated 15 min; best-fitting model
T4 construct: A purified human NEP ectodomain was used in continuous activity assays; made in house

nACE [4] = molecular target: T2, nACE; assay: Michaelis-Menten inhibition kinetics (mode of inhibition), nACE; type: biochemical; conditions: enzyme and inhibitor pre-incubated 15 min; best-fitting model
Experimental: (§3) page 9: curve. […] The apparent […]) obtained from this equation can then be converted to K i as for an IC50 value using Equation 1 provided the substrate competes with the inhibitor for the active site. (Et [[…] = V0(1 - i i ) Eq 2 2Et Where Vo is activity in absence of inhibitor, Vi is activity in presence of inhibitor, [I] is inhibitor concentration and Et is total enzyme concentration. Due to the slow binding of many protease inhibitors, inhibitors are typically pre-incubated with the enzyme prior to the addition of substrate to ensure that inhibition constants are measured under steady-state conditions. Accordingly, if an inhibitor forms a very tight complex with the enzyme resulting in a very slow off-rate, the inhibitor may not dissociate in the time of the experiment. Determining the Ki values for the mercaptoacyl inhibitors was challenging due to the chemical instability of the thiol group (although this was controlled by making up fresh stock before each experiment and diluting them immediately), the high potency, and the slow off rates observed in some cases, particularly for cACE. […] This is exemplified by the data for AD016. […] The K i values for the cACE determined in from this model were also inconsistent and were influence by the amount of enzyme used to the assay, again indicative of tight-binding conditions (Figure S1 C and D). […]

cACE [5] = molecular target: T3, cACE; assay: Michaelis-Menten inhibition kinetics (mode of inhibition), cACE; type: biochemical; conditions: enzyme and inhibitor pre-incubated 15 min; best-fitting model
Experimental: as §3

nACE [6] = molecular target: T2, nACE; assay: Jump dilution assay, nACE; type: biochemical; conditions: 15 min pre-incubation, 20-fold dilution, activity immediately and ~3 h later, 1 mM Z-FHL
Experimental: (§4) Figure S2: Jump dilution experiment forAD016. A) Enzyme and inhibitor were pre-incubated for 15 min and then an aliquot of each was removed and diluted 20-fold in assay buffer. Activity assays were performed on both the undiluted (A and C) and diluted (B and D) enzyme-inhibitor mixes immediately and ~3h. later. Reaction was initiated with Z-FHL substrate (1mM final concentration). Final enzyme and inhibitor concentrations are […]
(§5) The Morrison equation was fitted to the same data but gave a poor fit when Et was constrained to the enzyme concentration used in the assay and an unrealistic Et if this value was left unconstrained (Figure S3 C & D). The obvious explanation for the high Et predicted by the model is that the inhibitor concentration is much lower than […]
(§6) the nACE data would imply the inhibitor concentration is ~350-fold lower than expected while the cACE data implies it is 40-fold lower than expected. The same inhibitor dilution series was […]
(§7) (1 picture or pasted object on this page, not shown here)
(§8) Figure S4: Morrison plots for the inhibition of cACE by compound AD016. Two assays with carried out in parallel. One using 1nM final enzyme concentration and the other using 5-fold less (0.2nM). The model was fitted without constraining the Et. The Et predicted from data set using the Morrison equation is indicated on the graph. […]

cACE [7] = molecular target: T3, cACE; assay: Jump dilution assay, cACE; type: biochemical; conditions: 15 min pre-incubation, 20-fold dilution, activity immediately and ~3 h later, 1 mM Z-FHL
Experimental: as §4, §5, §6, §7, §8

human NEP ectodomain [8] = molecular target: T1, human NEP ectodomain; design: method as in PMID 35113565; conditions: stated in discussion, LisW data previously reported; cited from earlier work
patients = conditions: OCTAVE study, higher than the ACE inhibitor enalapril; cited from earlier work
[9] = 5 μM MCA-RPPGFSAFK(Dnp)-OH substrate

T1 sequence (P08473 52-750 limits assumed): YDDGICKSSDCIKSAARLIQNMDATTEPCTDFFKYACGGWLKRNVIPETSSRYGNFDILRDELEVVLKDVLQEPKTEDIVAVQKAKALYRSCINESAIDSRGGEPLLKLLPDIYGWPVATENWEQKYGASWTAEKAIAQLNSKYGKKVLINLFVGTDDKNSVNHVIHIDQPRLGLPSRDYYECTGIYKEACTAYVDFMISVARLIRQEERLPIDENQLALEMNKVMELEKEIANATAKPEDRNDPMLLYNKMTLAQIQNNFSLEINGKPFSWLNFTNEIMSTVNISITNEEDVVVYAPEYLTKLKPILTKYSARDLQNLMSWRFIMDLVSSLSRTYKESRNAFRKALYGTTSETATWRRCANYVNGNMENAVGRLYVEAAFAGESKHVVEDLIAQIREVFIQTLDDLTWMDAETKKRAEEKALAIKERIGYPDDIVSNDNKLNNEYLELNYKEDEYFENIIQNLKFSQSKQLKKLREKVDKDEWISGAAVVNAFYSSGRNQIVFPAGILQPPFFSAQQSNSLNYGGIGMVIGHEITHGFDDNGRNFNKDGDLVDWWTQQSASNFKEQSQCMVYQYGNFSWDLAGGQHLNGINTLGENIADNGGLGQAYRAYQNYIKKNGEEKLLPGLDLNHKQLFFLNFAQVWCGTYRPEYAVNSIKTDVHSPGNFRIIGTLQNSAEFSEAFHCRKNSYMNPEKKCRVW
T2 sequence (P12821 40-624 limits assumed): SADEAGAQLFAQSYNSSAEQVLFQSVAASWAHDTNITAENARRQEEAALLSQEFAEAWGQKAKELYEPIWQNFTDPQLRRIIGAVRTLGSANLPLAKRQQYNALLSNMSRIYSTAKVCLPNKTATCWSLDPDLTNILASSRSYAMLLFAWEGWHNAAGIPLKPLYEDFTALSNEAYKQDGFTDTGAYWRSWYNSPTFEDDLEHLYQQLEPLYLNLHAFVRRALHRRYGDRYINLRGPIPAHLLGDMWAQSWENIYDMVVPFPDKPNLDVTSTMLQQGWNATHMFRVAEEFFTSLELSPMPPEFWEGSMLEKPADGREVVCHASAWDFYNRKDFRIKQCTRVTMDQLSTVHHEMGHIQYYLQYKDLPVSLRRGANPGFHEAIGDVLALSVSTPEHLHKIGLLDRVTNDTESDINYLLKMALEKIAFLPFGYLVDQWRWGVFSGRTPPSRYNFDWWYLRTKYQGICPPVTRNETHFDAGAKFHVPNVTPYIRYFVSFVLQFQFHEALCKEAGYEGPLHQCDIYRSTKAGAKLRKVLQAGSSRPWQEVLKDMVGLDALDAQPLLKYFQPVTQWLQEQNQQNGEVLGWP
T3 sequence (P12821 643-1222 limits assumed): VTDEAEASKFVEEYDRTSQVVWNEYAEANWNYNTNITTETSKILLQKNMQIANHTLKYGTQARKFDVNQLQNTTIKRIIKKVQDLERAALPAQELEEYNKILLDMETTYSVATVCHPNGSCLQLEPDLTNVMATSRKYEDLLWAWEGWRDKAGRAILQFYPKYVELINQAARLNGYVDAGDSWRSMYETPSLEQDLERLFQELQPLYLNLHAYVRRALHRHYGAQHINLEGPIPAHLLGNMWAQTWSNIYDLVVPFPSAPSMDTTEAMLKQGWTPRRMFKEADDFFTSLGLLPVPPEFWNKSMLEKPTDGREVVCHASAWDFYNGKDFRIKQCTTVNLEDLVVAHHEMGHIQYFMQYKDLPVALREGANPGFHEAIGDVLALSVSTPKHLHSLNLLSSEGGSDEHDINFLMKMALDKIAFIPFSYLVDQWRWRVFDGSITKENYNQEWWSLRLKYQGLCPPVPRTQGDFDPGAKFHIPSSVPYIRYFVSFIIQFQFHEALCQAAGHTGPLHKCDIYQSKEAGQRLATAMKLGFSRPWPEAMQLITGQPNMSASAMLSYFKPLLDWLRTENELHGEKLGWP
T4 sequence (P08473 52-750 limits assumed): as the sequence (P08473 52-750 limits assumed) above

Row | SMILES | IC50 (human NEP ectodomain [1]; [9]) [nM] | reduction in affinity for nACE compared to omapatrilat (nACE [2]) | IC50 (nACE [2]) [nM] | C-selectivity factor (cACE [3]) | IC50 (cACE [3]) [nM] | further results
1 | O=C(NCC(=O)N1[C@@H](c2cccc(O)c2)CC[C@H]1C(=O)O)[C@@H](S)Cc1ccc(O)cc1 [AD014, (2S,5R)-5-(3-Hydroxyphenyl)-1-(((S)-3-(4-hydroxyphenyl)-2-mercaptopropanoyl)glycyl)pyrrolidine-2-carboxylic Acid] | 20 ± 10 | ~10 | 20 ± 7 | 2 |  | reduction in affinity for cACE compared to omapatrilat (cACE [3]; factor, from IC50 values): ~10
2 | Cc1ccc([C@H]2CC[C@@H](C(=O)O)N2C(=O)CNC(=O)[C@@H](S)Cc2ccccc2)cc1 [AD015, (2S,5R)-1-(((S)-2-Mercapto-3-phenylpropanoyl)glycyl)-5-(p-tolyl)pyrrolidine-2-carboxylic Acid] | 9 ± 3 | 10 | 19 ± 1 |  | 0.8 ± 0.2 | selectivity for NEP over nACE (human NEP ectodomain [1]; from IC50 values): 2 fold
3 | NCCCC[C@H](NC(=O)[C@@H](S)Cc1ccccc1)C(=O)N[C@@H](Cc1c[nH]c2ccccc12)C(=O)O [AD016, ((S)-2-Mercapto-3-phenylpropanoyl)-L-lysyl-L-tryptophan] | 1200 ± 200 |  | 150 ± 20 | 21 |  | IC50 (human NEP ectodomain [1]; 5 μM MCA-[…](Dnp)-OH substrate): 1000 nM; improved NEP inhibitory activity compared to LisW (human NEP ectodomain [1]; ratio of NEP IC50 values, LisW vs compound): over 200 fold; mode of inhibition of NEP (NEP): competitive inhibition; mode of inhibition of nACE (nACE [4]): competitive inhibition; mode of inhibition of cACE (cACE [5]): non-competitive; dissociation from nACE on jump dilution (nACE [6]): dissociates from nACE when diluted; dissociation from cACE on jump dilution (cACE [7]): remains tightly bound
4 | NCCCC[C@H](N[C@@H](CCc1ccccc1)C(=O)O)C(=O)N[C@@H](Cc1c[nH]c2ccccc12)C(=O)O [LisW, Lisinopril-tryptophan] |  |  |  |  |  | Ki (human NEP ectodomain [8]): > 150000 nM
5 | O=C(N[C@H]1CCS[C@H]2CCC[C@@H](C(=O)O)N2C1=O)[C@@H](S)Cc1ccccc1 [Omapatrilat, reference compound] | 10 |  | 2 ± 0.1 |  | 1 ± 0.1 | incidence of angioedema relative to enalapril (patients): 3 fold
